Assay results as given in US20200345049A1, “COMPOSITIONS” (Givaudan, S.A., priority 2017, published 2020).
Entries after “also recorded” stand apart in the source; their conditions may differ.

Experiments:
[1] = system: expert panel of seven people; experiment: Scoring of sweet taste aspects versus base solution (5% sucrose and 0.03% citric acid); type: in vivo, human; details: Table 20; 25 ppm; score versus base, 0 same, 3 much higher, −3 much lower
[2] = system: Four sweet sensitive panelists; experiment: Iso-sweet potency versus standard sucrose solutions; type: in vivo, human
Protocol: 10 mg iso-mogroside VI (FIG. 7) was dissolved in […] water to make 100 ppm iso-mogroside VI solution. The working solution of 11-epi-mogroside V (FIG. 8) was 374 ppm (9.34 mg 11-epi-mogroside V in 25 mL water), A series of standard sucrose solutions were prepared (0.50, 0.75, 1.00, 1.25, 1.50%) as sweetness references.
Four sweet sensitive panelists evaluated 100 ppm iso-mogroside VI and 374 ppm 11-epi-mogroside V and the sucrose standards, and were asked to give sweet equivalence concentrations to sucrose. The mean sweet equivalence concentrations of each compound were used to calculate the iso-sweet potency.

[3] = system: sweet sensitive taste panel of five experts (trained flavourists); experiment: Taste evaluation of mogroside V / 11-O-mogroside V solutions in 5% (w/v) sucrose and 0.03% (w/v) citric acid; type: in vivo, human; details: compared to mogroside V alone
Source text: Mogroside V and 11-O-mogroside V were isolated from extracts of Luo Han Guo using Agilent 1100 preparative HPLC system with a Phenomenex Luna C18 (2) column (5 μm, 210×21.4 mm), and combined to form solutions of various concentrations.
These solutions were combined with a solution containing 5% (w/v) sucrose and 0.03% (w/v) citric acid to give test samples and evaluated by a sweet sensitive taste panel of five experts (trained flavourists).

[4] = Sweetness relative to sucrose; type: in vivo
Protocol: The term “sucrose equivalence” refers to the equivalence in sweetness of a composition containing at least one non-sucrose sweetener to a reference sucrose solution. […] Other non-sucrose sweeteners may then be tasted at a series of dilutions to determine the concentration of the non-sucrose sweetener that is as sweet (i.e. isosweet) to a given sucrose reference. The term “isosweet” refers to compositions that have equivalent sweetness. Typically, the sweetness of a given composition is measured with reference to a solution of sucrose. See “A Systematic Study of Concentration-Response Relationships of Sweeteners,” […]. Walters, […]. Booth, […]. Gibes, B. T. Carr, and L. M. Brands, in Sweeteners: Discovery, Molecular Design and Chemoreception, D. E. Walters, F. T. Orthoefer, and G. E. DuBois, Eds., American Chemical Society, Washington, D.C. (1991), pp 261-276.

C[C@H](CC[C@@H](O[C@@H]1O[C@H](CO[C@@H]2O[C@H](CO)[C@@H](O)[C@H](O)[C@H]2O)[C@@H](O)[C@H](O)[C@H]1O[C@@H]1O[C@H](CO)[C@@H](O)[C@H](O)[C@H]1O)C(C)(C)O)[C@H]1CC[C@@]2(C)[C@@H]3CC=C4[C@@H](CC[C@H](O[C@@H]5O[C@H](CO[C@@H]6O[C@H](CO)[C@@H](O)[C@H](O)[C@H]6O)[C@@H](O)[C@H](O)[C@H]5O)C4(C)C)[C@]3(C)[C@@H](O)C[C@]12C [11-epi-mogroside V, 3-O-β-D-glucopyranosyl(1→6)-β-D-glucopyranosyl-11β-OH-mogrol-24-O-β-D-glucopyranosyl-(1→2)-[β-D-glucopyranosyl-(1→6)]-β-D-glucopyranosyl]
Astringent, average score [1]: 0 | Lingering Sweet, average score [1]: 0 | Overall Sweet, average score [1]: 0.17 | Upfront Sweet, average score [1]: 0.33 | Volatile Off-Note, average score [1]: 0 | Sweet equivalence concentration to sucrose ([2]; 374 ppm in water): 1.31 % sucrose | Iso-sweet potency ([2]; calculated from mean sweet equivalence concentrations): 35 times of sweetness of sucrose

C[C@H](CC[C@@H](O[C@@H]1O[C@H](CO[C@@H]2O[C@H](CO)[C@@H](O)[C@H](O)[C@H]2O)[C@@H](O)[C@H](O)[C@H]1O[C@@H]1O[C@H](CO)[C@@H](O)[C@H](O)[C@H]1O)C(C)(C)O)[C@H]1CC[C@@]2(C)[C@H]3CC=C4[C@@H](CC[C@H](O[C@@H]5O[C@H](CO[C@@H]6O[C@H](CO)[C@@H](O)[C@H](O)[C@H]6O)[C@@H](O)[C@H](O)[C@H]5O)C4(C)C)[C@]3(C)C(=O)C[C@]12C [11-O-mogroside V, 11-O-Mogroside V]
Effect of blending 11-O-mogroside V with mogroside V on sweet quality [3]: improves the sweet quality compared to mogroside V alone; also recorded: helped to reduce sweetness lingering (weaken later sweetness taste) and reduce astringent and bitter aftertastes compared to mogroside V alone | Sweetness relative to sucrose ([4]; Example 2 results): 84 times sweeter than sucrose | Sweetness relative to sucrose ([4]; description): about 84 times the sweetness of sucrose
